Results on one molecule are retold here after patent US20110039947A1, “SURFACE-MODIFIED NANOPARTICLES” (3M Innovative Properties Company, priority 2008, published 2011).

This series can be described thus: Pharmaceutical performance: Aerolizer DPI with Next Generation Pharmaceutical Impactor (NGI). The class given is physicochemical. The conditions noted are these: nominally 2 mg powder, NGI at 60 lpm for 4 seconds, respirable limit 4.5 micrometers. The method, then: Samples of micronized lactose and micronised budesonide powder were tested in addition to testing samples of nanoparticle-modified lactose and nanoparticle-modified budesonide powders. The NGI was coupled with a USP throat (United States Pharmacopeia, USP 24 <601>Aerosols, Metered Dose Inhalers, and Dry Powder Inhalers) and operated at a volumetric flow rate of 60 liters per minute (lpm) for a collection time of four seconds. A suitable coupler was affixed to the USP throat to provide an air-tight seal between the DPI device and the throat. For all testing, the stage cups of the NGI were coated with a surfactant to prevent particle bounce and re-entrainment. The amount of lactose or budesonide collected on each component of the NGI testing apparatus was determined by rinsing the component with a measured volume of an appropriate solvent and subjecting the rinsed material to high pressure liquid chromatography (HPLC) analysis with charged aerosol detection to determine lactose or budesonide concentration. Data that was returned from HPLC analysis was analyzed to determine the average amount of drug collected on the DPI and capsule, the USP throat, and on each component of the NGI per delivered dose. Using the individual component values, the respirable fraction and delivery efficiency were calculated for each powder sample. […]

For `O.OC[C@H]1O[C@@H](O[C@H]2[C@H](O)[C@@H](O)[C@@H](O)O[C@@H]2CO)[C@H](O)[C@@H](O)[C@H]1O` [Comparative Example C4, α-Lactose monohydrate], the “% Delivery Efficiency” value came to 34% and the “% Respirable Fraction” value worked out at 63%.
